Data taken from PubChem BioAssay (NCI).
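Each compound was tested at five concentrations against cells in 96-well plates for 48 hours. TGI: concentration producing complete growth inhibition.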

Tested on: SN12K1 renal
Assay: DTP human tumour cell line panel, 48 h

COc1cc(C2c3cc4c(cc3[C@@H](Nc3ccc([N+](=O)[O-])cc3)C3COC(=O)[C@H]23)OCO4)cc(OC)c1O (stereo partly specified)
TGI: 2880 nM
